Results published in PubChem BioAssay (NCI).
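Each compound was tested at five concentrations against cells in 96-well plates for 48 hours. Abbreviation: GI50, concentration required for 50% inhibition of growth. TGI marks complete inhibition of growth.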

What was measured:
Assay in all cases: NCI-60 cell line screen, 48 h
KM12 colon = system: KM12 colon
HCT-15 colon = system: HCT-15 colon
U251 CNS = system: U251 CNS
UO-31 renal = system: UO-31 renal
HCT-116 colon = system: HCT-116 colon
NCI-H23 lung = system: NCI-H23 lung
M14 melanoma = system: M14 melanoma
LOX IMVI melanoma = system: LOX IMVI melanoma
MDA-MB-435 = system: MDA-MB-435
NCI/ADR-RES ovarian = system: NCI/ADR-RES ovarian

With O=C(/C=C/c1cccc2ccccc12)c1ccccc1Cl as the molecule, how does the TGI (KM12 colon) read?
The TGI was 21.3 µM.

What about the TGI (HCT-15 colon) of the same molecule?
The TGI was 24.3 µM.

What about the TGI (U251 CNS) of the same molecule?
The TGI was 23.7 µM.

And the TGI (UO-31 renal)?
The TGI was 28 µM.

What about the TGI (HCT-116 colon) of the same molecule?
The TGI was 20.9 µM.

And the TGI (NCI-H23 lung)?
Its TGI is 28.5 µM.

And the TGI (M14 melanoma)?
Its TGI is 29.3 µM.

COc1ccc(CC2NCCc3c2[nH]c2ccccc32)cc1 (centres undefined) was tested. Which TGI (LOX IMVI melanoma) did it give?
Its TGI is over 100 µM.

What about the TGI (KM12 colon) of the same molecule?
The TGI was over 100 µM.

And the TGI (HCT-15 colon)?
The TGI was over 100 µM.

And the TGI (U251 CNS)?
Its TGI is over 100 µM.

What about the TGI (UO-31 renal) of the same molecule?
The TGI was over 100 µM.

What about the TGI (HCT-116 colon) of the same molecule?
Its TGI is over 100 µM.

What about the TGI (M14 melanoma) of the same molecule?
The TGI was over 100 µM.

For CCC[CH2][Sn]([Cl])([CH2]CCC)[CH2]CCC, which GI50 (LOX IMVI melanoma) is on record?
Its GI50 is 0.109 µM.

And the TGI (LOX IMVI melanoma)?
The TGI was 0.234 µM.

What about the GI50 (KM12 colon) of the same molecule?
Its GI50 is 0.123 µM.

What about the TGI (KM12 colon) of the same molecule?
Its TGI is 0.264 µM.

What about the GI50 (HCT-15 colon) of the same molecule?
The GI50 was 0.1 µM.

And the TGI (HCT-15 colon)?
Its TGI is 0.242 µM.

And the GI50 (U251 CNS)?
The GI50 was 0.113 µM.

And the TGI (U251 CNS)?
The TGI was 0.236 µM.

What about the GI50 (UO-31 renal) of the same molecule?
The GI50 was 0.16 µM.

What about the TGI (UO-31 renal) of the same molecule?
The TGI was 0.312 µM.

And the GI50 (HCT-116 colon)?
Its GI50 is 0.0569 µM.

And the TGI (HCT-116 colon)?
Its TGI is 0.188 µM.

What about the GI50 (NCI-H23 lung) of the same molecule?
The GI50 was 0.0552 µM.

And the TGI (NCI-H23 lung)?
Its TGI is 0.211 µM.

And the GI50 (M14 melanoma)?
Its GI50 is 0.162 µM.

What about the TGI (M14 melanoma) of the same molecule?
The TGI was 0.308 µM.

For Cc1nn(-c2ccc(Cl)cc2)c2nc3c(nc12)C(=O)c1ccccc1-3, which GI50 (LOX IMVI melanoma) is on record?
The GI50 was over 100 µM.

What about the TGI (LOX IMVI melanoma) of the same molecule?
Its TGI is over 100 µM.

And the GI50 (KM12 colon)?
Its GI50 is over 100 µM.

What about the TGI (KM12 colon) of the same molecule?
Its TGI is over 100 µM.

What about the GI50 (HCT-15 colon) of the same molecule?
The GI50 was over 100 µM.

And the TGI (HCT-15 colon)?
The TGI was over 100 µM.

What about the GI50 (MDA-MB-435) of the same molecule?
Its GI50 is over 100 µM.

What about the TGI (MDA-MB-435) of the same molecule?
Its TGI is over 100 µM.

What about the GI50 (U251 CNS) of the same molecule?
The GI50 was over 100 µM.

What about the TGI (U251 CNS) of the same molecule?
Its TGI is over 100 µM.

What about the GI50 (NCI/ADR-RES ovarian) of the same molecule?
The GI50 was over 100 µM.

What about the TGI (NCI/ADR-RES ovarian) of the same molecule?
The TGI was over 100 µM.

And the GI50 (UO-31 renal)?
Its GI50 is over 100 µM.

What about the TGI (UO-31 renal) of the same molecule?
Its TGI is over 100 µM.

What about the GI50 (NCI-H23 lung) of the same molecule?
The GI50 was over 100 µM.

What about the TGI (NCI-H23 lung) of the same molecule?
Its TGI is over 100 µM.

What about the GI50 (M14 melanoma) of the same molecule?
The GI50 was over 100 µM.

And the TGI (M14 melanoma)?
Its TGI is over 100 µM.

With CCC(C)COC(=O)c1ccc(N=Cc2ccc(C=Nc3ccc(C(=O)OCC(C)CC)cc3)cc2)cc1 (centres undefined) as the molecule, how does the TGI (LOX IMVI melanoma) read?
The TGI was over 100 µM.

What about the TGI (HCT-15 colon) of the same molecule?
The TGI was over 100 µM.

And the TGI (U251 CNS)?
Its TGI is over 100 µM.

What about the TGI (UO-31 renal) of the same molecule?
The TGI was over 100 µM.

What about the TGI (HCT-116 colon) of the same molecule?
The TGI was over 100 µM.

What about the TGI (NCI-H23 lung) of the same molecule?
Its TGI is over 100 µM.

What about the TGI (M14 melanoma) of the same molecule?
The TGI was over 100 µM.

With Cc1[nH]c2ccccc2c1C(=O)/C=C/c1ccccc1O as the molecule, how does the TGI (LOX IMVI melanoma) read?
The TGI was over 100 µM.

And the TGI (KM12 colon)?
Its TGI is over 100 µM.

And the TGI (U251 CNS)?
The TGI was over 100 µM.

And the TGI (UO-31 renal)?
The TGI was over 100 µM.

What about the TGI (HCT-116 colon) of the same molecule?
Its TGI is over 100 µM.

And the TGI (NCI-H23 lung)?
The TGI was over 100 µM.

What about the TGI (M14 melanoma) of the same molecule?
Its TGI is over 100 µM.

How did the TGI (KM12 colon) turn out when O=C1/C(=C/c2ccc3c(c2)OCO3)SC2C=Nc3ccccc3N12 (centres undefined) was run?
Its TGI is over 100 µM.

What about the TGI (HCT-15 colon) of the same molecule?
Its TGI is over 100 µM.

What about the TGI (U251 CNS) of the same molecule?
The TGI was over 100 µM.

What about the TGI (UO-31 renal) of the same molecule?
The TGI was over 100 µM.

What about the TGI (HCT-116 colon) of the same molecule?
Its TGI is over 100 µM.

What about the TGI (NCI-H23 lung) of the same molecule?
The TGI was over 100 µM.

And the TGI (M14 melanoma)?
Its TGI is over 100 µM.

Which TGI (KM12 colon) does the source give for O=C(CCc1n[nH]c(=S)o1)Nc1ccccc1C(F)(F)F here?
Its TGI is over 100 µM.

And the TGI (HCT-15 colon)?
The TGI was 38.8 µM.

What about the TGI (U251 CNS) of the same molecule?
The TGI was over 100 µM.

What about the TGI (UO-31 renal) of the same molecule?
The TGI was over 100 µM.

What about the TGI (NCI-H23 lung) of the same molecule?
Its TGI is over 100 µM.

What about the TGI (M14 melanoma) of the same molecule?
Its TGI is over 100 µM.

CCOC(=O)Nc1ccc(-c2nc(-c3cccc(OCCN4CCOCC4)c3)c(-c3ccnc(Br)c3)[nH]2)cc1 was tested. Which GI50 (KM12 colon) did it give?
Its GI50 is 3.19 µM.

And the TGI (KM12 colon)?
Its TGI is over 100 µM.

What about the GI50 (MDA-MB-435) of the same molecule?
The GI50 was 3.07 µM.

What about the TGI (MDA-MB-435) of the same molecule?
The TGI was 47.6 µM.

What about the GI50 (U251 CNS) of the same molecule?
The GI50 was 2.75 µM.

And the TGI (U251 CNS)?
Its TGI is over 100 µM.

And the GI50 (NCI/ADR-RES ovarian)?
The GI50 was 3.39 µM.

And the TGI (NCI/ADR-RES ovarian)?
The TGI was over 100 µM.

And the GI50 (UO-31 renal)?
The GI50 was 2.72 µM.

And the TGI (UO-31 renal)?
The TGI was over 100 µM.

And the GI50 (HCT-116 colon)?
Its GI50 is 2.98 µM.

What about the TGI (HCT-116 colon) of the same molecule?
The TGI was over 100 µM.

What about the GI50 (NCI-H23 lung) of the same molecule?
The GI50 was 2.19 µM.

And the TGI (NCI-H23 lung)?
The TGI was 5.6 µM.

What about the GI50 (M14 melanoma) of the same molecule?
Its GI50 is 2.97 µM.

And the TGI (M14 melanoma)?
The TGI was 13.7 µM.

With O=C(Nc1ccncc1)C(=O)c1cn(S(=O)(=O)c2ccc(F)cc2)c2ccccc12 as the molecule, how does the GI50 (LOX IMVI melanoma) read?
Its GI50 is 2.22 µM.

What about the TGI (LOX IMVI melanoma) of the same molecule?
The TGI was over 100 µM.

And the GI50 (KM12 colon)?
The GI50 was 1.49 µM.

What about the TGI (KM12 colon) of the same molecule?
Its TGI is over 100 µM.

What about the GI50 (HCT-15 colon) of the same molecule?
Its GI50 is 1.41 µM.

What about the TGI (HCT-15 colon) of the same molecule?
Its TGI is over 100 µM.

And the GI50 (U251 CNS)?
The GI50 was 3.48 µM.

What about the TGI (U251 CNS) of the same molecule?
Its TGI is over 100 µM.

What about the GI50 (NCI/ADR-RES ovarian) of the same molecule?
The GI50 was 1.76 µM.

What about the TGI (NCI/ADR-RES ovarian) of the same molecule?
The TGI was over 100 µM.

And the GI50 (UO-31 renal)?
Its GI50 is 2.64 µM.

And the TGI (UO-31 renal)?
The TGI was 48.3 µM.

What about the GI50 (HCT-116 colon) of the same molecule?
Its GI50 is 0.781 µM.

What about the TGI (HCT-116 colon) of the same molecule?
The TGI was 34.1 µM.

What about the GI50 (NCI-H23 lung) of the same molecule?
The GI50 was 2.54 µM.

What about the TGI (NCI-H23 lung) of the same molecule?
The TGI was over 100 µM.

What about the GI50 (M14 melanoma) of the same molecule?
The GI50 was 1.78 µM.

And the TGI (M14 melanoma)?
The TGI was over 100 µM.
